According to patent US20170152245A1 (National Taiwan University, priority 2015, published 2017):

Key:
[1] = tested on: mouse PRP; test: Ex vivo mouse PRP aggregation caused by U46619; type: in vivo, mice; conditions: 10 μg/g i.v.; U46619 0.125 μM; compared to nstpbp5185
Experimental: Mice were i.v. injected with vehicle, nstpbp5185 (10 μg/g) or Ctkf6f2 (10 μg/g). The blood samples were collected within 10 mins by intracardiac puncture for PRP, and U46619 (0.125 μM) was added. Platelet aggregation was measured turbidimetrically using platelet aggregometer. Shown are representative of three independent experiments.
Furthermore, the platelet aggregation was evaluated on ex vivo mouse model. The mouse was i.v. administered with compound 5185 (10 μg/g) or Ctkf6f2 (10 μg/g), compared to the vehicle-treated control. The blood was collected and evaluated for its response to U46619 (0.125 μM) on the aggregometer (FIG. 10).

[2] = tested on: washed human platelets; test: LDH assay in washed human platelets; type: cell-based; conditions: 10 μM
Description: To begin with, potency of aggregation inhibition and estimated the IC50 of Ctkf6f2 on platelet aggregation caused by different agonists was investigated. […] In addition, the effect of Ctkf6f2 in platelet-rich plasma was also investigated. […] Furthermore, concentration-dependent inhibition curve in platelet suspension and platelet-rich plasma could be observed as well from FIG. 3. Moreover, LDH assay in washed human platelets with various Ctkf6f2 concentration used in the following experiments was performed.

[3] = tested on: platelet suspension; test: U46619-stimulated platelet protein tyrosine phosphorylation; type: cell-based; conditions: 2.5 μM; U46619 1 μM
Experimental: FIG. 19 Effects of nstpbp5185 on U46619-stimulated protein tyrosine phosphorylation in platelet suspension. Platelets were incubated with nstpbp5185 (2.5 μM) or solvent control for 3 min and then stimulated with U46619 (1 μM) for the times indicated (second, s). Then platelets were lysed in SDS buffer and the lysates separated by SDS-PAGE (7.5%-15% acrylamide gradient) under reducing conditions. After electrophoresis, the proteins were transferred to PVDF membranes, and were incubated with several antiphosphotyrosine mAb before detection by using a peroxidase-linked second Ab and detected by chemiluminescence. Data are representative of three separate experiments.
Given the thromboxane receptor-blocking effect of nstpbp5185, the effect of nstpbp5185 on U46619-stimulated signal transduction in platelets was investigated. Stimulation of thromboxane receptors results in phosphorylation of PLCβ2 and activates downstream signaling pathway PKCα, PI3K, Syk, extracellular signal-regulated kinase (ERK) and focal adhesion kinase. The effect of nstpbp5185 on levels of protein tyrosine phosphorylation was examined in platelet cell lysates in different time course. […] In the presence of nstpbp5185 (2.5 μM), the overall pattern of protein tyrosine phosphorylation of signaling molecules during platelet activation was suppressed, including phospholipase Cβ2 (PLCβ2), FAK, PKCα, PI3-kinase, Syk and ERK.

[4] = tested on: rat carotid artery; test: Balloon-injury rat carotid artery model (neointima formation); type: in vivo; conditions: 1 or 2 mg/kg/day intraperitoneally for 2 weeks; rats
Experimental: We used the established rat carotid artery (CA) model of balloon angioplasty to examine the in vivo arterial response to injury^20. Briefly, male Wistar rats weighing 350-400 g were anesthetized with intraperitoneal pentobarbital (50 mg/kg), and the left CA was exposed. A Fogarty 2F embolectomy balloon catheter was inserted into the left external carotid artery through arteriotomy incision and advanced to the aortic arch. The balloon was inflated and withdrawn three times with rotation at the same pressure. Followed by removal of the catheter, the external carotid artery was ligated and the wound closed. Animals were given standard rat chow and tap water, and i.p. administered 1 and 2 mg/kg or vehicle daily for 2 weeks, at which time they were sacrificed, and the sections from both the right and left (collateral control group) CA were harvested to fix with 4% paraformaldehyde in PBS overnight for study. All procedures involving animal experiments were approved by the Institutional Animal Care and Use Committee of Collagen of Medicine, National Taiwan University.
We further determined the inhibitory effect of nstpbp5185 on neointima formation after carotid artery injury. […] (FIG. 16G) Data are quantified by the neointima/media ratio of common carotid arteries after balloon injury. […]

[5] = tested on: rats; test: Gastric damage in rats; type: in vivo; conditions: 40 μg g^−1 oral, 3 h
Experimental: Rats (Wistar) were fasted overnight then given aspirin at dose of 150 mg/kg or nstpbp5185 at 40 mg/kg. Both drugs were suspended in 1% carboxymethylcellulose. Three hours later, the rats were sacrificed, the stomach excised, and the extent of hemorrhagic erosions scored by an observer unaware of treatment the rats received. Each lesion larger than 2 mm was counted for comparison. The stomach was fixed in formalin (pH, 7.4) and photographed.

| Compound | inhibition of platelet aggregation of PRP induced by U46619, ex vivo [1] | cytotoxicity to platelets (LDH assay) [2] | protein tyrosine phosphorylation of signaling molecules (PLCβ2, FAK, PKCα, PI3-kinase, Syk, ERK) [3] | N/M ratio (neointima/media) [4] | gastric lesions (>2 mm) [5] |
| --- | --- | --- | --- | --- | --- |
| Cc1ccc(-c2nc3ccc(F)cc3n2Cc2cccc(F)c2)o1 [Ctkf6f2, 6-fluoro-1-(3-fluorobenzyl)-2-(5-methyl-2-furyl)benzimidazole] | superior inhibition | little cytotoxicity | – | – | – |
| Cc1ccc(-c2nc3ccccc3n2Cc2ccccc2)o1 [Example 6, 1-Benzyl-2-(5-methyl-2-furyl)benzimidazole] | – | – | suppressed | significantly inhibited | did not cause significant lesion |
